Results taken from the supplement of paper PMC10307832.

Columns and labels:
Assay in all cases: relative viability (nuclei count vs DMSO), 5 days (fraction); higher = more cells survive
[1] = compound: O=C(O)CCCCC(CCSCc1ccccc1)SCc1ccccc1 [CPI-613]
Method in brief: (§1)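 Vehicle-anchored 1536-well plates of lung cancer cell lines, held overnight at 37 °C, were pinned with five library-drug doses (not always all listed) spaced by √10. No medium change followed over the next 5 days, after which the cells were fixed, permeabilised and Hoechst-stained together and imaged at 4×. Nuclei were counted with MetaXpress, and viability is treated-well nuclei over vehicle-well nuclei, taken as a median across plates. Plates passed with control CV below 25% and at least one doubling.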

[2] = compound: Cc1sc2c(c1C)C(c1ccc(Cl)cc1)=N[C@@H](CC(=O)OC(C)(C)C)c1nnc(C)n1-2 [JQ1]
Method in brief: as §1

[3] = compound: Cc1cnc(-c2cnc(NCCNc3ccc(C#N)cn3)nc2-c2ccc(Cl)cc2Cl)[nH]1
Method in brief: as §1

[4] = compound: O=c1[nH]c2ccccc2n1C1CCN(CCCC(c2ccc(F)cc2)c2ccc(F)cc2)CC1 [Pimozide]
Method in brief: as §1

[5] = compound: COc1cc2nccc(Oc3ccc(NC(=O)Nc4cc(C)on4)c(Cl)c3)c2cc1OC [Tivozanib]
Method in brief: as §1

[6] = compound: Nc1ccn([C@@H]2O[C@H](CO)[C@@H](O)[C@@H]2O)c(=O)n1 [Cytarabine]
Method in brief: as §1

[7] = compound: CC(=O)O[C@@]12CO[C@@H]1C[C@H](O)[C@@]1(C)C(=O)[C@H](O)C3=C(C)[C@@H](OC(=O)[C@H](O)[C@@H](NC(=O)OC(C)(C)C)c4ccccc4)C[C@@](O)([C@@H](OC(=O)c4ccccc4)[C@H]21)C3(C)C [Docetaxel]
Method in brief: as §1

| Cell Line | relative viability ([1]; 5 µM) | relative viability ([1]; 15.81 µM) | relative viability ([1]; 50 µM) | relative viability ([1]; 158.11 µM) | relative viability ([1]; 500 µM) | relative viability ([2]; 0.04 µM) | relative viability ([2]; 0.1265 µM) | relative viability ([2]; 0.4 µM) | relative viability ([2]; 1.265 µM) | relative viability ([2]; 4 µM) | relative viability ([3]; 0.08 µM) | relative viability ([3]; 0.253 µM) | relative viability ([3]; 0.8 µM) | relative viability ([3]; 2.53 µM) | relative viability ([4]; 0.08 µM) | relative viability ([4]; 0.8 µM) | relative viability ([4]; 2.53 µM) | relative viability ([4]; 8 µM) | relative viability ([5]; 0.005 µM) | relative viability ([5]; 0.01581 µM) | relative viability ([5]; 0.05 µM) | relative viability ([5]; 0.1581 µM) | relative viability ([5]; 0.5 µM) | relative viability ([6]; 0.005 µM) | relative viability ([6]; 0.01581 µM) | relative viability ([6]; 0.05 µM) | relative viability ([6]; 0.1581 µM) | relative viability ([6]; 0.5 µM) | relative viability ([7]; 0.0002 µM) | relative viability ([7]; 0.000632 µM) | relative viability ([7]; 0.002 µM) | relative viability ([7]; 0.006325 µM) | relative viability ([7]; 0.02 µM) | relative viability ([4]; 0.253 µM) |
| --- | --- | --- | --- | --- | --- | --- | --- | --- | --- | --- | --- | --- | --- | --- | --- | --- | --- | --- | --- | --- | --- | --- | --- | --- | --- | --- | --- | --- | --- | --- | --- | --- | --- | --- |
| HCC-78 | 0.875 | 0.835 | 0.994 | 0.921 | 0.839 | 0.936 | 0.853 | 0.843 | 0.601 | 0.434 | 0.999 | 0.807 | 0.936 | 0.928 | 0.859 | 0.828 | 0.837 | 0.932 | 0.85 | 0.942 | 0.955 | 0.732 | 0.757 | 1.09 | 0.844 | 0.593 | 0.444 | 0.339 | 0.91 | 0.784 | 0.48 | 0.482 | 0.382 | – |
| 201T | 0.97 | 0.909 | 0.968 | 0.756 | 0.862 | 0.97 | 0.561 | 0.865 | 0.458 | 0.386 | 1.01 | – | 0.966 | 0.992 | 0.98 | 0.965 | 0.936 | 0.832 | 1.01 | 1.01 | 1.03 | 0.912 | 0.991 | 0.981 | 1.03 | 0.977 | 0.873 | 0.787 | 0.977 | 0.963 | 0.657 | 0.469 | 0.369 | 0.977 |
| NCI-H1944 | 0.918 | 0.922 | 0.947 | 0.712 | 0.51 | 0.951 | 0.709 | 0.612 | 0.53 | 0.485 | 1.09 | – | 1.01 | 0.916 | 0.925 | 0.698 | 0.795 | 0.944 | 0.925 | 0.998 | 0.949 | 0.849 | 0.978 | 0.654 | 0.481 | 0.381 | 0.23 | 0.159 | 0.948 | 1 | 0.822 | 0.336 | 0.173 | 0.877 |
| NCI-H1993 | 0.84 | 0.932 | 0.967 | 0.717 | 0.439 | 0.919 | 0.994 | 0.922 | 0.663 | 0.709 | 0.951 | 0.789 | 1.03 | 1.07 | 0.822 | 0.816 | 0.969 | 0.912 | 0.945 | 0.867 | 1.13 | 0.589 | 0.762 | 0.941 | 0.916 | 0.764 | 0.655 | 0.519 | 0.778 | 0.964 | 0.806 | 0.597 | 0.5 | 0.824 |
| LOU-NH91 | 0.926 | 0.951 | 0.982 | 0.913 | 0.842 | 0.989 | 0.801 | 0.637 | 0.626 | 0.462 | 1.01 | 0.924 | 0.94 | 0.976 | 0.785 | 0.916 | 1.04 | 0.896 | 0.865 | 1.04 | 0.982 | 0.814 | 0.945 | 0.955 | 0.918 | 0.723 | 0.7 | 0.584 | 0.898 | 0.758 | 0.473 | 0.369 | 0.354 | 0.924 |
| NCI-H520 | 1.05 | 0.952 | 1.04 | 0.77 | 0.139 | 0.954 | 1.07 | 0.905 | 0.533 | 0.458 | 1.04 | 1 | 1.03 | 1.07 | 0.993 | 0.903 | 0.96 | 0.972 | 0.906 | 0.922 | 0.884 | 0.684 | 0.859 | 0.94 | 1.04 | 1.13 | 0.741 | 0.657 | 0.853 | 0.973 | 0.489 | 0.277 | 0.169 | 0.978 |
| SK-LU-1 | 1.04 | 0.911 | 0.995 | 0.668 | 0.473 | 1 | 0.91 | 0.91 | 0.377 | 0.238 | 1.12 | 0.967 | 1.06 | 1.14 | 1.02 | 0.986 | 0.876 | 0.858 | 1 | 1.02 | 1.12 | 0.928 | 1.05 | 0.853 | 0.868 | 0.776 | 0.433 | 0.322 | 0.843 | 0.64 | 0.425 | 0.329 | 0.255 | 1.03 |
| NCI-H1793 | 0.854 | 0.705 | 0.994 | 0.494 | 0.0301 | 0.802 | 0.785 | 0.674 | 0.778 | 0.78 | 1.07 | 0.879 | 0.876 | 1.02 | 0.746 | 0.675 | 0.947 | 0.711 | 0.84 | 0.787 | 0.952 | – | 0.977 | 0.958 | 0.884 | 0.818 | 0.691 | 0.521 | 1.01 | 0.852 | 0.351 | 0.285 | 0.186 | 0.846 |
| NCI-H1666 | 0.964 | 0.945 | 0.837 | 0.696 | 0.323 | 0.94 | 0.965 | 0.848 | 0.711 | 0.64 | 0.983 | 0.929 | 1.06 | 0.998 | 0.953 | 0.934 | 0.909 | 0.909 | 0.965 | 0.965 | 1.02 | 0.99 | 1.02 | 1 | 0.849 | 0.803 | 0.56 | 0.573 | 0.86 | 0.876 | 0.616 | 0.6 | 0.421 | 0.983 |
| NCI-H1395 | 0.993 | 0.806 | 0.897 | 0.84 | 0.8 | 0.849 | 0.734 | 0.702 | 0.516 | 0.547 | 1.08 | 0.84 | 0.818 | 0.837 | 0.918 | 0.822 | 0.878 | 0.918 | 0.738 | 1.04 | 1 | 0.736 | 0.677 | 0.826 | 0.775 | 0.567 | 0.447 | 0.354 | 0.933 | 0.861 | 0.676 | 0.39 | 0.268 | 0.84 |
| NCI-H2342 | 0.929 | 1.01 | 1.07 | 0.97 | 1.07 | 1.17 | 0.775 | 0.993 | 0.943 | 0.756 | 1.13 | 0.794 | 0.952 | 0.903 | 1.01 | 0.912 | 0.863 | 0.995 | 0.88 | 0.948 | 0.886 | – | 0.987 | 0.909 | 0.878 | 0.793 | 0.744 | 0.608 | 1.04 | 0.818 | 0.692 | 0.619 | 0.484 | 0.876 |
| NCI-H1755 | 0.937 | 0.958 | 0.942 | 0.973 | 0.49 | 0.984 | 0.819 | 1.04 | 0.966 | 0.836 | 1.04 | 0.831 | 1.03 | 1.08 | 0.916 | 0.946 | 0.929 | 0.892 | 0.991 | 0.961 | 1.01 | 1.02 | 0.917 | 1.04 | 0.97 | 0.864 | 0.548 | 0.404 | 0.984 | 0.941 | 0.724 | 0.459 | 0.411 | 0.967 |
| NCI-H2405 | 0.996 | 0.909 | 0.939 | 0.931 | 0.78 | 1.03 | 0.598 | 0.921 | 0.711 | 0.499 | 1.01 | 0.938 | 0.948 | 0.736 | 0.964 | 1.03 | 0.992 | 0.96 | 0.933 | 1.02 | 1.04 | 0.89 | 0.772 | 0.927 | 0.712 | 0.57 | 0.512 | 0.384 | 0.982 | 0.879 | 0.633 | 0.453 | 0.339 | 0.937 |
| NCI-H838 | 0.948 | 0.864 | 0.883 | 0.649 | 0.0946 | 0.961 | 0.59 | 0.792 | 0.436 | 0.343 | 0.999 | 0.93 | 1.05 | 1.16 | 0.953 | 0.93 | 0.927 | 0.959 | 0.957 | 0.969 | 1.01 | 0.736 | 0.979 | 0.97 | 0.964 | 0.743 | 0.423 | 0.293 | 0.937 | 0.867 | 0.393 | 0.197 | 0.175 | 0.998 |
| NCI-H596 | 0.956 | 0.902 | 1.04 | 0.781 | 0.0741 | 1.06 | 0.923 | 0.747 | 0.412 | 0.286 | 0.995 | 0.972 | 0.754 | 1.07 | 0.993 | 0.882 | 0.952 | 0.847 | 0.926 | 0.963 | 1.13 | – | 0.99 | 0.956 | 0.841 | 0.798 | 0.689 | 0.551 | 0.89 | 0.89 | 0.632 | 0.518 | 0.273 | 0.935 |
| NCI-H322M | 0.894 | 0.85 | 0.899 | 0.911 | 0.153 | 0.917 | 1.05 | 0.822 | 0.57 | 0.437 | 0.976 | 0.842 | 0.853 | 1.26 | – | 1.02 | 0.948 | 0.705 | 0.948 | 0.929 | 0.972 | 0.791 | 0.902 | 0.877 | 0.794 | 0.628 | 0.475 | 0.336 | 0.957 | 0.889 | 0.762 | 0.612 | 0.439 | 0.932 |
